Measurements as given in patent publication US20260053932A1, “COMPOUNDS AND METHODS FOR THE TARGETED DEGRADATION OF ANDROGEN RECEPTOR AND ASSOCIATED METHODS OF USE” (Arvinas Operations, Inc., priority 2020, published 2026).

Tested on: androgen receptor (AR) in LNCaP and/or VCaP cells
Assay: Androgen Receptor ELISA assay (AR degradation)
Assay type: cell-based
Conditions: degradation of AR ELISA in LNCaP and/or VCaP cells; Table 2C; read-out: DC50 Code*
Summary of the method: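 VCaP cells grown ≥3 days, then treated 5 h with compound in media containing 1 nM R1881 (10× stock). Cells lysed and AR quantified by sandwich ELISA (mouse AR detection Ab, HRP anti-mouse, TMB). DC50 and Dmax derived from AR degradation.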

DC50: < 1 nM
Structure (SMILES): COCCOCCOCCOCCOCCN(CC1CCN(c2ncc(C(=O)N[C@H]3C(C)(C)[C@H](Oc4cc(C)c(C#N)c(C)c4)C3(C)C)cn2)CC1)[C@H]1C[C@H](Oc2ccc3c(c2)C(=O)N(C2CCC(=O)NC2=O)C3=O)C1 (stereo partly shown) [compound 155, N-((1r,3r)-3-(4-cyano-3,5-dimethylphenoxy)-2,2,4,4-tetramethylcyclobutyl)-2-(4-(2-((1r,3r)-3-((2-(2,6-dioxopiperidin-3-yl)-1,3-dioxoisoindolin-5-yl)oxy)cyclobutyl)-5,8,11,14,17-pentaoxa-2-azaoctadecyl)piperidin-1-yl)pyrimidine-5-carboxamide]
